Values of other authors, collected in US8241397B2, “Adsorptive gas sampler using ionic nano-droplets” (Honeywell International Inc., priority 2008, dated 2012).

details: water uptake

Row | SMILES | Solubility of solvent H2O in ionic liquid (% w/w)
1 | CCCCn1cc[n+](C)c1.O=S(=O)([N-]S(=O)(=O)C(F)(F)F)C(F)(F)F [[C4MIM][TF2N], [C4MIM] bis(trifluoromethylsulfonyl) imide] | 1.17
2 | CCCCCCCCn1cc[n+](C)c1.O=S(=O)([N-]S(=O)(=O)C(F)(F)F)C(F)(F)F [[C8MIM][TF2N]] | 0.74
3 | CCCCCCn1cc[n+](C)c1.O=S(=O)([N-]S(=O)(=O)C(F)(F)F)C(F)(F)F [[C6MIM][TF2N]] | 0.88
